Test results reported in paper PMC10018702 (Nature chemistry, 2022).

How the values were obtained:
[1] = biological target: T1, eEF1A ternary complex on human ribosomes (Homo sapiens, UniProt P68104); experiment: smFRET ternary complex real-time delivery experiment; type: biochemical; conditions: 10 μM drug delivered with ternary complex, 25 °C
T1 sequence (P68104 1-462): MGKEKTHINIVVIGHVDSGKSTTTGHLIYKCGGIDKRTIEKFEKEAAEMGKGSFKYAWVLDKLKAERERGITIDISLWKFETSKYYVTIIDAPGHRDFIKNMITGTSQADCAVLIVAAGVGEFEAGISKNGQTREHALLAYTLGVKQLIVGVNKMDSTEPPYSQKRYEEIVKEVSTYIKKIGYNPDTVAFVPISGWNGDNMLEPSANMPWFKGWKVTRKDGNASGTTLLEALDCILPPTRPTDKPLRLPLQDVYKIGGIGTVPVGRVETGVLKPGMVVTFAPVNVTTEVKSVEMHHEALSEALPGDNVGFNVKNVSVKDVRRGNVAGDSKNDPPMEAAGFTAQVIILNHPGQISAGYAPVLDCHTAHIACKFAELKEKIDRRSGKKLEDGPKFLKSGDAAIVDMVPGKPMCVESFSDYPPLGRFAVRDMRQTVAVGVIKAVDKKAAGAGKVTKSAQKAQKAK

[2] = biological target: T1, eEF1A ternary complex on human ribosomes; experiment: smFRET drug chase experiments; type: binding
[3] = mouse, in vivo, ip, 2 mg/kg
Eμ-Myc/+ lymphoma cells = experiment: Eμ-Myc lymphoma allograft model; conditions: 1.5 or 2.0 mg/kg, intraperitoneal, 3 times per week
[4] = biological target: eukaryotic elongation factor-1α (eEF1A) (UniProt P68104); experiment: single-molecule FRET chase
HCT116 cells [5] = experiment: OPP incorporation assay; conditions: HCT116, 24 h continuous treatment, then 1-h OPP pulse
HCT116 cells [6] = conditions: HCT116, 72 h, alamarBlue
[7] = system: cancer cell proliferation; conditions: cited from earlier work
[8] = from rebinding constants, chase with 0-10 μM drug

Q: Which aa-tRNA accommodation [1] does the source give for `C=C[C@H](C)C[C@@H]1NC(=O)[C@H]([C@H](O)C(C)C)N(C)C(=O)[C@H](C)N(C)C(=O)[C@@H]([C@@H](C)CC)NC(=O)[C@@H]([C@H](O)C(C)C)NC(=O)[C@H]2CCCCN2C(=O)[C@H](C)N(C)C1=O` [SR-A3] here?
A: strongly inhibited

Q: What about the “rebinding to stalled eEF1A-ribosome complex relative to SS-A3” value [2, 8] of the same compound?
A: twice as fast

Q: What about the “rebinding to stalled eEF1A-ribosome complex relative to ternatin-4” value [2, 8] of the same compound?
A: four times as fast

Q: What about the “residence time longer than ternatin-4 or SS-A3” value ([2]; washout into drug-free buffer) of the same compound?
A: about 60%

Q: And the “AUCinf, fold higher than ternatin-4” value [3]?
A: ~ 2.1 fold

Q: And the “Cmax, fold higher than ternatin-4” value [3]?
A: ~ 1.7 fold

Q: And the body weight (Eμ-Myc/+ lymphoma cells)?
A: no significant body weight loss

Q: What about the tolerability (Eμ-Myc/+ lymphoma cells; both dose groups) of the same compound?
A: well tolerated

Q: What about the “survival of tumor-bearing mice” value (Eμ-Myc/+ lymphoma cells; n = 5 per group) of the same compound?
A: dramatically prolonged survival

Q: With ternatin-4 (peptide) as the compound, how does the residence time [4] read?
A: 56 s

Q: For ternatin-4 [reference compound], which aa-tRNA accommodation [1] is on record?
A: strongly inhibited

Q: And the “potency in protein synthesis inhibition compared with SR-A3” value (HCT116 cells [5])?
A: behaved identically

Q: With `C=C[C@H](C)C[C@@H]1NC(=O)[C@H]([C@@H](O)C(C)C)N(C)C(=O)[C@H](C)N(C)C(=O)[C@@H]([C@@H](C)CC)NC(=O)[C@@H]([C@H](O)C(C)C)NC(=O)[C@H]2CCCCN2C(=O)[C@H](C)N(C)C1=O` [SS-A3] as the compound, how does the aa-tRNA accommodation [1] read?
A: strongly inhibited

Q: What about the “fold less potent than SR-A3 (HCT116 proliferation IC50)” value (HCT116 cells [6]) of the same compound?
A: ~ 3 fold

Q: What about the “potency in protein synthesis inhibition compared with SR-A3” value (HCT116 cells [5]) of the same compound?
A: slightly less potent

Q: With `C=C[C@H](C)C[C@@H]1NC(=O)[C@H]([C@H](O)C(C)C)N(C)C(=O)[C@H](C)N(C)C(=O)[C@@H]([C@@H](C)CC)NC(=O)[C@@H]([C@H](O)C(C)C)NC(=O)[C@H]2CCCCN2C(=O)[C@H](C)N(C)C1=O` [A3] as the compound, how does the “concentration inhibiting cancer cell proliferation” value [7] read?
A: low nanomolar concentrations
